Data reported in US20030078211A1, “Compositions and methods for inhibiting bone resorption” (Merck & Co., Inc., priority 1998, published 2003).
*: point of attachment. Cbz = O=C(OCc1ccccc1)*; CH2F = FC*

Key:
[1] = system: Mst 1; assay: In-gel kinase assay using myelin basic protein as a substrate, purified osteoclast-like cells (FIG. 4); format: cell-based, mice; settings: for effect of caspase inhibitor on activation of Mst 1 by alendronate monosodium trihydrate: 20 μM caspase inhibitor with 30 μM alendronate monosodium trihydrate, FIG. 4 lanes 6-8
Protocol: Murine co-cultures of osteoblasts and marrow cells are prepared using the methods of Wesolowski, et al., Exp Cell Res, (1995), 219, pp. 679-686, which is incorporated by reference herein in its entirety. Bone marrow cells are harvested from 6-week-old male Balb/C mice by flushing marrow spaces of freshly isolated long bones (tibiae and femora) with α-MEM (minimal essential media) containing penicillin/streptomycin (100 I.U./ml of each and 20 mM Hepes buffer). The bone marrow cells are suspended in α-MEM and the cells are filtered through an approximately 70 μm cell strainer. The filtrate is centrifuged at about 300×g for about 7 minutes. The resulting pellet is resuspended in α-MEM supplemented with fetal calf serum (10% v/v) and 10 nM 1, 25-(OH)2 vitamin D3. These bone marrow isolates are added to sub-confluent monolayers of osteoblastic MB 1.8 cells in cell culture plates and cultured for 7 days at 37° C. in the presence of 5% CO2. Culture media is replenished ever other day. Fusion of the osteoclast precursor cells from bone marrow (with each other) to form multinucleated osteoclast-like cells typically occurs after about 7 days. Osteoclast-like cells are enriched by sequential treatment with collagenase (1 mg/mL in phosphate buffered saline) for one hour at 37° C. and EDTA (0.2 g/L in phosphate buffered saline) for 20 min at 37° C. Non-adherent cells are rinsed away by washing with phosphate buffered saline. […]
The compounds to be evaluated are prepared as a solution of the desired concentration in α-MEM. Examples of compounds that can be evaluated include nitrogen-containing bisphosphonates such as alendronate monosodium trihydrate, as well as compounds that block the effects of these inhibitors, such as caspase inhibitors such as Z-Val-Ala-Asp-FMK, Z-Asp-Glu-Val-Asp-FMK, and Z-Tyr-Val-Ala-Asp-FMK. Combinations of compounds can also be evaluated. The solutions of the compounds to be evaluated are added to the cultures for a time period of 17-24 hours. […]
Cells are then harvested and lysed in a HEPES (N-(2-hydroxyethyl)piperazine-N′-(2-ethansulfonic acid) or Tris buffer containing the following: β-glycerophosphate (50 mM); Na3VO4 (1 mM); NaF (1 mM); Microcystin LR (1 μM); leupeptin (10 μg/ml); aprotinin (10 μg/ml); phenylmethyl sulfonylfluoride (1 mM). Protein concentrations are determined for each lysate and 5-20 μg are loaded into each lane of a SDS-PAGE (sodium dodecyl sulfate-polyacrylamide gel electrophoresis) gel containing Myelin Basic Protein, or another kinase substrate, which has been polymerized into the gel at a concentration between 50-400 μg/ml. […]

[2] = system: 34 kDa Mst kinase fragment; assay: In-gel kinase assay of lysates of treated osteoclast-like cells; format: cell-based, mice; settings: for activation of the 34 kDa Mst Kinase fragment: FIG. 2; for activation of a 34 kDa Kinase: FIG. 3
Protocol: Murine co-cultures of osteoblasts and marrow cells are prepared using the methods of Wesolowski, et al., Exp Cell Res, (1995), 219, pp. 679-686, which is incorporated by reference herein in its entirety. Bone marrow cells are harvested from 6-week-old male Balb/C mice by flushing marrow spaces of freshly isolated long bones (tibiae and femora) with α-MEM (minimal essential media) containing penicillin/streptomycin (100 I.U./ml of each and 20 mM Hepes buffer). The bone marrow cells are suspended in α-MEM and the cells are filtered through an approximately 70 μm cell strainer. The filtrate is centrifuged at about 300×g for about 7 minutes. The resulting pellet is resuspended in α-MEM supplemented with fetal calf serum (10% v/v) and 10 nM 1, 25-(OH)2 vitamin D3. These bone marrow isolates are added to sub-confluent monolayers of osteoblastic MB 1.8 cells in cell culture plates and cultured for 7 days at 37° C. in the presence of 5% CO2. Culture media is replenished ever other day. Fusion of the osteoclast precursor cells from bone marrow (with each other) to form multinucleated osteoclast-like cells typically occurs after about 7 days. Osteoclast-like cells are enriched by sequential treatment with collagenase (1 mg/mL in phosphate buffered saline) for one hour at 37° C. and EDTA (0.2 g/L in phosphate buffered saline) for 20 min at 37° C. Non-adherent cells are rinsed away by washing with phosphate buffered saline. Osteoclast-like cells which are resistant to the sequential treatments are present at about 95% purity and are maintained in α-MEM supplemented with fetal calf serum (10% v/v), 10 nM 1,25-(OH)2 vitamin D3, macrophage-colony-stimulating factor (5 ng/mL).
The compounds to be evaluated are prepared as a solution of the desired concentration in α-MEM. Examples of compounds that can be evaluated include nitrogen-containing bisphosphonates such as alendronate monosodium trihydrate, as well as compounds that block the effects of these inhibitors, such as caspase inhibitors such as Z-Val-Ala-Asp-FMK, Z-Asp-Glu-Val-Asp-FMK, and Z-Tyr-Val-Ala-Asp-FMK. Combinations of compounds can also be evaluated. The solutions of the compounds to be evaluated are added to the cultures for a time period of 17-24 hours. No treatment controls (controls not treated with comcpounds) are prepared by adding equivalent volumes of α-MEM to the control dishes.
Cells are then harvested and lysed in a HEPES (N-(2-hydroxyethyl)piperazine-N′-(2-ethansulfonic acid) or Tris buffer containing the following: β-glycerophosphate (50 mM); Na3VO4 (1 mM); NaF (1 mM); Microcystin LR (1 μM); leupeptin (10 μg/ml); aprotinin (10 μg/ml); phenylmethyl sulfonylfluoride (1 mM). Protein concentrations are determined for each lysate and 5-20 μg are loaded into each lane of a SDS-PAGE (sodium dodecyl sulfate-polyacrylamide gel electrophoresis) gel containing Myelin Basic Protein, or another kinase substrate, which has been polymerized into the gel at a concentration between 50-400 μg/ml. Molecular weight standards are also loaded into one or more lanes of the gels. In-gel kinase assays are run according to a standard procedure based on Kameshita and Fujisawa, 1989 (Anal. Biochem. 183:139-143) and of Gotoh et al., 1990 (Eur. J. Biochem. 193: 661-669), both references being incorporated by reference herein in their entirety. The proteins are electrophoresed in the above gels. The gels are then successively soaked in 50 mM HEPES, pH 7.6; 5 mM 2-mercaptoethanol and each of the following (for each wash): (a) 20% isopropanol; (b) no additions; (c) urea (6 M); (d) Urea (3 M); (e) Urea (0.75 M); and Tween 20 (0.05% vol:vol). Kinase reactions are then run by first soaking the gels in 20 mM HEPES, pH 7.6; 20 mM MgCl2; 2 mM DTT and then in the same buffer containing […] ATP (non-radioactive) with ca. 1000 cpm/pmol ^32P-γ-ATP. The gels are then washed six times with 5% trichloroacetic acid and 1% pyrophosphate.

[3] = system: osteoclast; assay: Osteoclast cell cultures and bone resorption assays; format: cell-based
[4] = system: Mst (mammalian Sterile-20-like kinase); assay: Bisphosphonate-induced cleavage of Mst in osteoclasts; format: cell-based

Compound | effect of caspase inhibitor on activation of Mst 1 by alendronate monosodium trihydrate [1] | effect on the inhibitory effect otherwise observed with a bisphosphonate such as alendronate monosodium trihydrate [3] | activation of the 34 kDa Mst Kinase fragment ([2]; 30 μM, about 17 hours) | activation of a 34 kDa Kinase ([2]; 100 μM, 17 hours) | activation of the 34 kDa Mst Kinase fragment ([2]; 100 μM, about 17 hours) | activation of a 34 kDa Kinase ([2]; 300 μM, 17 hours) | also measured
Cbz-Val-Ala-Asp-CH2F | blocked | can block the inhibitory effect |  |  |  |  | activation of the 34 kDa Kinase by alendronate when coincubated with the caspase inhibitor ([2]; coincubation with alendronate, FIG. 3 lane 8): does not activate; effect on cleavage of Mst induced by bisphosphonates such as alendronate monosodium trihydrate [4]: prevent the cleavage of Mst
O=P(O)(O)C(Sc1ccc(Cl)cc1)P(=O)(O)O [tiludronate disodium] |  |  | fail to activate | fail to activate | fail to activate | fail to activate | 
NCCCC(O)(P(=O)(O)O)P(=O)(O)O [alendronate monosodium trihydrate, 4-amino-1-hydroxybutylidene-1,1-bisphosphonic acid monosodium trihydrate] |  |  | activation |  | activation |  | activation of Mst 1 ([1]; 30 μM, osteoclast-like cells, FIG. 4): activation; activation of a 34 kDa Kinase ([2]; 10 μM, about 17 hours): activation; activation of the 34 kDa Mst Kinase fragment immunoprecipitated by anti-Mst and anti-Krs antibody cocktail ([2]; 30 μM, FIG. 1 lane 3): activated; activation of a 34 kDa Kinase ([2]; 30 μM, about 17 hours): activation
CC(O)(P(=O)(O)O)P(=O)(O)O [etidronate disodium] |  |  | fail to activate | fail to activate | fail to activate | fail to activate | 
Z-Tyr-Val-Ala-Asp-FMK (Cbz-YVAD-CH2F; SMILES CC(C)[C@H](NC(=O)[C@H](Cc1ccc(O)cc1)NC(=O)OCc1ccccc1)C(=O)N[C@@H](C)C(=O)N[C@@H](CC(=O)O)C(=O)CF) | blocked | can block the inhibitory effect |  |  |  |  | 
Z-Asp-Glu-Val-Asp-FMK (Cbz-DEVD-CH2F; SMILES CC(C)[C@H](NC(=O)[C@H](CCC(=O)O)NC(=O)[C@H](CC(=O)O)NC(=O)OCc1ccccc1)C(=O)N[C@@H](CC(=O)O)C(=O)CF) | blocked | can block the inhibitory effect |  |  |  |  | 
